Molecular target: T1, cPLA2 (Homo sapiens, UniProt P47712)
T1 sequence (P47712 1-749): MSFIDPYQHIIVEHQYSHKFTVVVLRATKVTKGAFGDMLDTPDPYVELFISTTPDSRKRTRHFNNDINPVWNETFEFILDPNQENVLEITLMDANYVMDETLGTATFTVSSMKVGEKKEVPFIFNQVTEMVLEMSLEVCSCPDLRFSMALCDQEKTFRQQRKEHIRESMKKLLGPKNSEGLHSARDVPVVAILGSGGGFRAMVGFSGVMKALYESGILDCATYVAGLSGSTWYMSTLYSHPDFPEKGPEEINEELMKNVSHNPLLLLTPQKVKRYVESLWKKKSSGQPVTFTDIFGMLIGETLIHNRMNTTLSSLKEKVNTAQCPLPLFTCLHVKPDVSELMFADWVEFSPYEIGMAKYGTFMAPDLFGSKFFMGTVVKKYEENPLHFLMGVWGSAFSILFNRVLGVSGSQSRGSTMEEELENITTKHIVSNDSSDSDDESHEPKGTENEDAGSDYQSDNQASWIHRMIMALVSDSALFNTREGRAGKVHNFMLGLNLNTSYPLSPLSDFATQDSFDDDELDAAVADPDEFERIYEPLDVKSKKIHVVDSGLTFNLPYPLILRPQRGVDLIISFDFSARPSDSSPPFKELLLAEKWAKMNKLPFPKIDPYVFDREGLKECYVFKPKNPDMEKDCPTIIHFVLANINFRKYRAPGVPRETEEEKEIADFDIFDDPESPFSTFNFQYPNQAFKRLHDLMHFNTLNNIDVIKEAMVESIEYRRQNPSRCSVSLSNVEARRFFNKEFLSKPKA
Assay: Coumarine assay (cPLA2 inhibition)
Assay type: biochemical
Settings: 7-hydroxycoumarinyl 6-heptenoate as monomeric substrate, fluorescence 360/460 nm; read-out: Coumarin IC50
Procedure: 7-hydroxycoumarinyl 6-heptenoate was used as a monomeric substrate for cPLA2 as reported previously (Huang, Z. et al., 1994, Nalytical Biochemistry 222, 110-115). Inhibitors were mixed with 200 μL assay buffer (80 mM Heped, pH 7.5, l mM EDTA) containing 60 μM 7-hydroxycoumarinyl 6-heptenoate. The reaction was initiated by adding 4 μg cPLA2 in 50 μL assay buffer. Hydrolysis of the 7-hydroxycoumarinyl 6-heptenoate ester was monitored in a fluorometer by exciting at 360 nm and monitoring emission at 460 nm. Enzyme activity is proportional to the increase in emission at 460 nm per minute. In the presence of a cPLA2 inhibitor, the rate of increase is less.

Going from `Cc1c(C(c2ccccc2)c2ccccc2)c2cc(Cl)ccc2n1C/C=C/COc1ccc(C(=O)O)cc1` [Example 88, 4-{[(E)-4-(3-benzhydryl-5-chloro-2-methyl-1H-indol-1-yl)-2-butenyl]oxy}benzoic acid] to `Cc1c(C(c2ccccc2)c2ccccc2)c2cc(Cl)ccc2n1CCOc1ccc(C(=O)O)cc1` [Example 89, 4-[2-(3benzhydryl-5-chloro-2-methyl-1H-indol-1-yl)ethoxy]benzoic acid], the IC50 rises from 1100 nM to 2500 nM (2.3-fold).

First: Cc1c(C(c2ccccc2)c2ccccc2)c2cc(Cl)ccc2n1CCOc1ccc(CCC(=O)O)cc1 [Example 90, 3-{4-[2-(3-benzhydryl-5-chloro-2-methyl-1H-indol-1-yl)ethoxy]phenyl}propanoic acid]
Second: Cc1c(C(c2ccccc2)c2ccccc2)c2ccccc2n1CCOc1ccc(C(=O)O)cc1 [Example 93, 4-[2-(3-benzhydryl-2-methyl-1H-indol-1-yl)ethoxy]benzoic acid]
The IC50 of the first is 2.1-fold lower: 1200 nM for the first, 2500 nM for the second.

Compared with `O=C(O)CCc1ccc(S(=O)(=O)CCn2cc(C(c3ccccc3)c3ccccc3)c3ccc(Cl)cc32)cc1` [Example 91, 3(4-{[2-(3-benzhydryl-6-chloro-1H-indol-1-yl)ethyl]sulfonyl}phenyl)propanoic acid], `O=C(O)c1ccc(S(=O)(=O)CCn2cc(C(c3ccccc3)c3ccccc3)c3ccc(Cl)cc32)cc1` [Example 92, 4-{[2-(3-benzhydryl-6-chloro-1H-indol-1-yl)ethyl]sulfonyl}benzoic acid] is 2.2-fold higher in IC50: 4000 nM for the first, 9000 nM for the second. The first is the more potent here.
